Consider 5 molecules from patent US20210121518A1, “HER2-TARGETED PEPTIDOMIMETICS GRAFTED ONTO MULTICYCLIC PEPTIDE SCAFFOLDS AND METHODS AND USES” (Board of Supervisors for the University of Louisiana System, priority 2018, published 2021).

Values joined by “and” are separate entries in the source; they are usually repeats but may differ in a detail not shown here. Equal entries are not always repeated. “Also recorded” adds a separate entry of the source. Numbered stars: 1 amine (or outer) side, 2 acyl side, 3 side chain; on linkers, the order of the positions; unused ones are H or OH. Bridge positions count the residues as written; N and C are the ends. Square brackets hold non-standard residues; d marks the D form. Peptide text beside a SMILES is read from it. βAla(3R-(1-naphthyl)) = O=C(C[C@@H](N[*:1])c1cccc2ccccc12)[*:2]; βAla(3S-(1-naphthyl)) = O=C(C[C@H](N[*:1])c1cccc2ccccc12)[*:2] Bounds are passed on as bounds.

The test system of data set [1] is HER2 overexpressing BT-474 breast cancer cell lines. Conditions: read-out: antiproliferative activity IC50. Here is the method:
(§1) X=Anapa, amino naphthyl propionic acid, specifically, 3-amino 3(1-napthyl) propionic acid. Single letter amino acid code was used for peptide sequence. Small letters refer to D amino acids and capital letters refer to L amino acids. Chirality of Anapa was indicated with R and S configuration in italics. Antiproliferative activity of peptides in cancer cell lines are given as IC50 μM. Disulfide bond between the cysteines is shown in underline.

In data set [2] the test system is HER2-overexpressing lung cancer Calu-3 cell lines. Conditions: read-out: antiproliferative activity IC50. The procedure: as §1
Data set [3] relates to MCF-7 cell lines that do not overexpress the HER2 protein. Here is the method: as §1
Data set [4] relates to normal breast epithelial cell line MCF-10A. The note with it: for IC50: read-out: antiproliferative activity IC50, MCF-10A. The procedure: as §1
Design of grafted peptides: Peptidomimetics were designed to bind to HER2 protein domain IV and inhibit PPI of HER2:HER3 and EGFR:HER2.

Data set [5] has as its system NCI-H1975 (EGFR L858R/T790M double mutation). The note with it: read-out: antiproliferative activity IC50. Here is the method: as §1
The inventor therefor designed compounds to bind to the extracellular domain and inhibit the downstream signaling. NCI-H1975 is a cell line that harbors the EGFR L858R/T790M double mutation.

The test system of data set [6] is phosphorylation of HER2 kinase. Briefly: Western blot of HER2 phosphorylation in A549 cells. The data set is classed as cell-based. Conditions: 1 μM, incubation 40 h. Here is the method:
Lapatinib (2 μM) was used as positive control. Incubation 40 h. *p<0.05 **P<0.01.
Lapatinib, a known inhibitor of HER2, was used as a positive control.

Data set [7] relates to EGFR mutated NSCLC cell line NCI-H1975. Briefly: Synergy with TKI (isobologram) in NCI-H1975. The data set is classed as cell-based.
Data set [8] has as its system BT-474 cell lines that overexpress HER2. The data set can be described thus: Synergy with TKI (isobologram) in BT-474. The data set is classed as cell-based.
Data set [9] relates to Calu-3 lung cancer cell lines that overexpresses HER2. Briefly: Synergy with TKI (isobologram) in Calu-3. The data set is classed as cell-based.
Data set [10] is described as follows: Thermal stability by CD spectroscopy. The data set is classed as physicochemical. The note with it: temperature changed from 25 to 80° C. (85 C). The procedure:
Overall conformation of the peptide remained the same at all temperatures studied.
(§2) However, CD spectra of peptides provide the information about the overall average conformation of the peptide in solution. To verify that the peptide was stable even at high temperature, the samples of peptide that were heated to 80 C was analyzed by mass spectrometry. […] The CD spectra of compound 18 was also verified using mass spectrometry analysis (FIG. 22).

Data set [11] is described as follows: Thermal stability by MALDI-TOF mass spectrometry. The data set is classed as physicochemical. The note with it: 25° C., 50° C., 80° C., MALDI-TOF-MS. Here is the method: FIGS. 12A-12C are three charts showing thermal stability of the disclosed H2TPFGGoCSs using mass spectrometry.
as §2

The next data set concerns trypsin. The data set can be described thus: Stability in trypsin (HPLC). The data set is classed as in vitro ADME. Conditions: pH 7.4, 37° C, 24 hours. The procedure:
The trypsin inhibition assay was performed with a modified Erlanger's method. […] Samples at different incubation times were analyzed by HPLC.

Data set [12] is described as follows: Stability in human serum (in vitro, HPLC). The data set is classed as in vitro ADME. The source says:
At different time points, aliquots of sample were taken and subjected to extraction of compound using cold acetonitrile. Samples were freeze dried and quantified by HPLC method. […] Nearly 60% of sample is intact peptide.

The test system of data set [13] is A549 Red-FLuc NSCLC cells. Briefly: A549 Red-FLuc lung cancer model in athymic nude mice. The data set is classed as in vivo, mice (Foxn1-nude). Conditions: 6 mg/kg IV twice a week. Here is the method:
A549 cells with luciferase were injected to induce lung cancer in mice (Foxn1-nude). One week after injection of cells, mice were monitored for lung cancer development using luciferin imaging. Peptide was administered via IV twice a week after 2 weeks of cell injections. Representative images: In the control group (row 1) lung cancer tumor growth increased in 5 weeks.
FIG. 17 is a chart showing relative luminescence intensity (total photon flux/sec) plotted for 3 animals and a control.
FIG. 18A is a plot of relative luminescence intensity (total photon flux/sec) plotted for 4 animals and controls from the lung cancer study, *p<0.05, and FIG. 18B is a plot displaying bodyweight change of mice during the study.
Athymic nude mice (Foxn1-nude, 6-7 weeks old) were purchased from Harlan laboratories. Mice were acclimatized for one week in the vivarium. 4.5×10^6 A549 Red-FLuc NSCLC cells in 150 μL PBS were injected into each mouse via tail vein (IV). Total of four mice were injected with cells. Mice were monitored for 2 weeks. After 1 week, mice were injected with luciferin (200 μL in PBS, IP injection) and imaged under anesthesia using IVIS (Perkin Elmer) instrument. Bioluminescence was measured from each animal. One animal was used as a control. Peptide treatment started after 2 weeks from injection of cells and peptide was prepared in PBS and administered via i.v. with a dose of 6 mg/kg in 100 μL twice a week. Animals were imaged once a week to monitor the progression of lung cancer. Images were quantified using Living Image Software (Perkin Elmer). Bioluminescence signal for each mouse was expressed as total flux of photons/sec. Region of interest tool was used to measure the total photon flux/sec. A graph of bioluminescence for each mouse was plotted with respect to time (each week). After five weeks mice were terminated, and tumor sections and lungs were removed by surgical procedure. Tumor sections were fixed, embedded in […], and cut into 5 μm slices. […] Images were viewed under a fluorescence microscope (Olympus BX63 microscope) at 40× magnification. […]

For data set [14] the following is noted: for appearance in water (turbidity): 0.5 mg in 1 mL water, compared to blank. Here is the method: 0.5 mg of each compound was added to water in 1 mL. […] If a compound is highly soluble in water, it may not pass through intestinal barrier. Compound should be slightly lipophilic to pass through intestinal barrier.
Data set [15] addresses HER2 protein extracellular domain (ECD) (Homo sapiens, UniProt P04626). Briefly: SPR binding to HER2 extracellular domain. Conditions: SPR sensorgram. The source says: Surface plasmon resonance (SPR) analysis of binding of grafted peptide with HER2 ECD protein at different concentrations. […] SPR analysis of binding of grafted peptide with HER2 ECD domain IV protein at different concentrations.
To evaluate the binding of the grafted peptide to HER2 protein ECD, surface plasmon resonance (SPR) analysis was used.
For orientation: SPR reads the build-up and loss of mass on a sensor chip optically.

Data set [16] addresses T1, human serum albumin (HSA) (human, UniProt P02768 25-609).
T1 construct: also called HSA protein
Briefly: SPR.

T1 sequence (P02768 25-609 limits assumed): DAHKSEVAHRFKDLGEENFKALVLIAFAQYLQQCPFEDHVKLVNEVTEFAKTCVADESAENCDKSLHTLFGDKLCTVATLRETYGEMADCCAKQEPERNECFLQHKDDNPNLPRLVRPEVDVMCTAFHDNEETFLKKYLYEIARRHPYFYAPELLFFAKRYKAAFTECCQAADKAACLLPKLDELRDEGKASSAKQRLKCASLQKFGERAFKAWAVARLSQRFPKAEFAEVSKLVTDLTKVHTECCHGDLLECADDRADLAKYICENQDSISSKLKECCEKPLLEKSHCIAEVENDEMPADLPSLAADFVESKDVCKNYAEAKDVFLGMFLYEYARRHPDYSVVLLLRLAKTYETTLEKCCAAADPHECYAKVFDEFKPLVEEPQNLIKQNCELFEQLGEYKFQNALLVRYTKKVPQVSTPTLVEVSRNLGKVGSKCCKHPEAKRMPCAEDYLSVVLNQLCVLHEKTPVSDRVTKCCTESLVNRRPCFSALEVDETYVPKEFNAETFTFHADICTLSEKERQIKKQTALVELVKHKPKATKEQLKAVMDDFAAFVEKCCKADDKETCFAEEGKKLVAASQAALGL

Regarding `CC[C@H](C)[C@@H]1NC(=O)[C@H](CCCNC(=N)N)NC(=O)C[C@@H](c2cccc3ccccc23)NC(=O)[C@@H]2CSSC[C@H](NC(=O)C[C@@H](c3cccc4ccccc34)NC(=O)[C@H](CCCNC(=N)N)NC(=O)[C@@H]3CCCN3C(=O)[C@@H]3CCCN3C1=O)C(=O)N[C@@H](Cc1ccccc1)C(=O)N1CCC[C@H]1C(=O)N[C@@H](CC(=O)O)C(=O)N[C@@H](CC(=O)O)C(=O)N[C@@H](Cc1ccccc1)C(=O)N2` [SFTI-G5, Cyclo(C(S-X)RIPPR(S-X)CFPDDF)], the IC50 in data set [1] amounted to 0.28 µM; in [2], 0.073 µM; in [3] (read-out: antiproliferative activity IC50, MCF-7), 25 µM; in data set [4] it was 40 µM; in [5], 4.22 µM. For the same molecule, the “antiproliferative activity, times less against HER2-ve cell lines” value in [3] (as printed: less than its activity against HER2-ve cell lines) is around 300 times. In addition, the “antiproliferative activity, times less in noncancerous breast cell lines compared to Calu-3” value in [4] (MCF-10A vs Calu-3) is on record as “more than 500 times”. Moreover, in data set [6], the “inhibition of HER2 phosphorylation” value is given as “inhibits phosphorylation of HER2 kinase; also recorded: reduces HER2 phosphorylation”. For the same molecule, the “synergistic effect with erlotinib (isobologram)” value in data set [7] (NCI-H1975, combination with erlotinib) was “synergistic”; in data set [8] (BT-474, combination with erlotinib), “synergistic”; in data set [9] (Calu-3, combination with erlotinib) it was “synergistic”. For the same molecule, the “synergistic effect with lapatinib (isobologram)” value in [7] (NCI-H1975, combination with lapatinib) is reported as “synergistic”; in data set [8] (BT-474, combination with lapatinib) it was “synergistic”; in [9] (Calu-3, combination with lapatinib) it was “synergistic”. Besides, in [10], the “thermal stability, CD spectra” value is given as “stable from 25 C to 85 C; also recorded: more stable than compound 18; also recorded: no significance difference in the CD spectra”. In addition, the “thermal stability, mass spectrometry” value in data set [11] is “stable up to 80 C; also recorded: thermally stable”. The stability in trypsin entry in the data set on trypsin was “stable in trypsin assay”. In data set [12] (2 mg/mL in human serum, HPLC), the “time of stability in human serum” value is given as “up to 50 h”. Also, in [12] (human, human serum, up to 50 h, read-out: intact peptide in human serum), the remaining at 50 h, 2 mg/mL is around 60%. For the same molecule, the “histological analysis of lung tissue” value in [13] is recorded as “reduced pathological features associated with tumor development”. For the same molecule, the “tumor growth (bioluminescence, total photon flux/sec)” value in [13] (weeks 4 and 5, vs control) is recorded as “reduced growth of tumors; also recorded: tumor growth was reduced compared to the control group; also recorded: reduction in the luminescence intensity of tumors”. The “body weight change of mice” value in data set [13] (during the study) is reported as “No changes in body weight were observed”. The “appearance in water (turbidity)” value in data set [14] is recorded as “slightly turbid”.

For the molecule `N=C(N)NCCC[C@@H]1NC(=O)[C@H]2CCCN2C(=O)[C@@H]2CCCN2C(=O)[C@H](CCCNC(=N)N)NC(=O)C[C@H](c2cccc3ccccc23)NC(=O)[C@H](Cc2ccccc2)NC(=O)[C@H](CC(=O)O)NC(=O)[C@H](CC(=O)O)NC(=O)[C@H](Cc2ccccc2)NC(=O)C[C@H](c2cccc3ccccc23)NC1=O` [compound 18, reference compound] (cyclo(P[dP]R[βAla(3R-(1-naphthyl))]FDDF[βAla(3R-(1-naphthyl))]R)), the IC50 in data set [4] was found to be 40 µM. Moreover, the solubility in data set [14] is below 500 µg/mL.

In the case of “Cyclo(C(S-X)RIHyPHyPR(S-X)CFPDDF) [SFTI-G7]”, in [14], the “appearance in water (turbidity)” value is “slightly turbid”.

Regarding “H2N—K(3-aminobiphenyl propionic acid)F—OH [control peptide]”, the “binding to HER2 protein (in words)” value in data set [15] is “does not bind to HER2 protein; also recorded: no binding was observed”.

B1: SFTI-G5 (peptide)
peptide: cyclo(C[βAla(3S-(1-naphthyl))]RIPPR[βAla(3S-(1-naphthyl))]CFPDDF)
modifications: disulfide 1-9
notes: also called grafted peptide; grafted SFTI peptide
As for B1, the Kd in data set [16] is 56.9 µM and 56 µM.

For orientation: IC50 means the concentration that gives 50% inhibition. One may read the solubility as the dissolved amount per volume that the medium holds. A low value points to little dissolved substance. In general, Kd refers to the equilibrium constant for the complex coming apart. Read a high Kd as lower affinity.
